Test results taken from US20030153051A1, “Cholesterol oxidase” (priority 1998, published 2003).
Entries after “also recorded” stand apart in the source; their conditions may differ.

Legend:
[1] = tested on: cholesterol oxidase derived from ST-200 strain; experiment: Effect of metal ions and the like on enzyme activity; type: biochemical, Pseudomonas sp. ST-200; conditions: for Relative activity (%): pH 7; for Inhibition of enzyme activity (in words): 1 mM
[2] = tested on: cholesterol oxidase derived from ST-200 strain; experiment: Effect of organic solvents on enzyme activity (ST-200); type: biochemical, Pseudomonas sp. ST-200; conditions: for Relative activity, ST-200: organic solvent 50% by volume of reaction solution, pH 7, 30° C., no solvent = 1; for Reaction velocity in solvent compared to cholesterol oxidases of Nocardia erythropolis, Pseudomonas sp., Streptomyces sp., Brevibacterium sp. (in words): organic solvent 50% by volume, 30° C., pH 7
[3] = tested on: cholesterol oxidase derived from Nocardia erythropolis; experiment: Effect of organic solvents on enzyme activity (Nocardia erythropolis); type: biochemical; conditions: organic solvent 50% by volume of reaction solution; pH 7, 30° C.; no solvent = 1
[4] = tested on: cholesterol oxidase derived from Pseudomonas sp.; experiment: Effect of organic solvents on enzyme activity (Pseudomonas sp.); type: biochemical; conditions: organic solvent 50% by volume of reaction solution; pH 7, 30° C.; no solvent = 1
[5] = tested on: cholesterol oxidase derived from Streptomyces sp.; experiment: Effect of organic solvents on enzyme activity (Streptomyces sp.); type: biochemical; conditions: organic solvent 50% by volume of reaction solution; pH 7, 30° C.; no solvent = 1
[6] = tested on: cholesterol oxidase derived from Brevibacterium sp.; experiment: Effect of organic solvents on enzyme activity (Brevibacterium sp.); type: biochemical; conditions: organic solvent 50% by volume of reaction solution; pH 7, 30° C.; no solvent = 1
[7] = tested on: cholesterol oxidase derived from ST-200 strain; experiment: Substrate specificity of enzyme; type: biochemical, Pseudomonas sp. ST-200; conditions: for Relative activity (%): various substrates, 30° C., pH 7, enzyme activity with cholesterol set to be 100
[8] = tested on: cholesterol oxidase derived from Brevibacterium sp.; experiment: Enzyme kinetics (Km, Vmax) of cholesterol oxidation, Lineweaver-Burk; type: biochemical; conditions: 30° C., pH 7
Protocol: (§1) Enzyme activity was measured as described in Test Example 1 at 30° C. at pH 7.

[9] = tested on: cholesterol oxidase derived from Nocardia erythropolis; experiment: as above; type: biochemical; conditions: 30° C., pH 7
Protocol: as §1

[10] = tested on: cholesterol oxidase derived from Pseudomonas sp. (comparison); experiment: as above; type: biochemical; conditions: 30° C., pH 7
Protocol: as §1

[11] = tested on: cholesterol oxidase derived from Pseudomonas sp. ST-200 (FERM BP-6661); experiment: as above; type: biochemical; conditions: 30° C., pH 7, 0 to 1 mM cholesterol
Protocol: as §1

[12] = tested on: cholesterol oxidase derived from Streptomyces sp.; experiment: as above; type: biochemical; conditions: 30° C., pH 7
Protocol: as §1

[13] = tested on: cholesterol oxidase derived from Pseudomonas sp. ST-200 (FERM BP-6661); experiment: Effect of metal ions and the like (additives) on enzyme activity; type: biochemical; conditions: additive at 1 mM; activity without additive = 100; cholesterol substrate, 30° C., pH 7
Protocol: Effect of metal ions and the like on the activity of the enzyme obtained in Example 1 was studied. Enzyme activity was measured as described in Test Example 1 at 30° C. at pH 7 after adding various metal compounds, to a final concentration of […], to the reaction system.

[14] = 0.03% Triton X-100, 0 to 1 mM cholesterol
[15] = head 0.03% Triton X-100 (0.3% in text)
[16] = additive 1 mM, 30° C., cholesterol as substrate, activity without additive set to be 100

Molecule: Oc1cccc2cccnc12 [8-hydroxyquinoline, reference compound]
- Relative activity (%) [1]: 85%

Molecule: c1ccccc1 [Benzene]
- Effect of organic solvent on reaction velocity (in words) [2]: increased
- Relative activity, ST-200 [2]: 3.0
- Reaction velocity in solvent compared to cholesterol oxidases of Nocardia erythropolis, Pseudomonas sp., Streptomyces sp., Brevibacterium sp. (in words) [2]: higher reaction velocity
- Relative activity, Nocardia erythropolis [3]: 1.5
- Relative activity, Pseudomonas sp. [4]: 1.3
- Relative activity, Streptomyces sp. [5]: 0.9
- Relative activity, Brevibacterium sp. [6]: 0.5

Molecule: [Ca+2].[Cl-].[Cl-] [Calcium chloride]
- Relative activity (%) [1]: 106%

Molecule: ClC(Cl)Cl [Chloroform]
- Relative activity, ST-200 [2]: 0.2
- Relative activity, Nocardia erythropolis [3]: 0.3
- Relative activity, Pseudomonas sp. [4]: 0.1
- Relative activity, Streptomyces sp. [5]: 0.1
- Relative activity, Brevibacterium sp. [6]: <0.1

Molecule: CC(C)CCC[C@@H](C)[C@H]1CC[C@H]2[C@@H]3CC=C4C[C@@H](O)CC[C@]4(C)[C@H]3CC[C@]12C [Cholesterol, cholest-5-en-3β-ol]
- Action of the enzyme on the substrate (in words) [7]: strongly oxidized
- Relative activity (%) [7]: 100%
- Km [8, 14]: 63.3 µM
- Vmax [8, 14]: 12.0 µmol/min/mg
- Km [8, 15]: 925 µM
- Vmax [8, 15]: 11.3 µmol/min/mg
- Km [9, 14]: 5.14 µM
- Vmax [9, 14]: 9.8 µmol/min/mg
- Km [9, 15]: 44 µM
- Vmax [9, 15]: 6.8 µmol/min/mg
- Km [10, 14]: 9.41 µM
- Vmax [10, 14]: 11.0 µmol/min/mg
- Km [10, 15]: 76.1 µM
- Vmax [10, 15]: 10.3 µmol/min/mg
- Km ([11]; 0.03% Triton X-100): 4.04 µM
- Vmax ([11]; 0.03% Triton X-100): 13.1 µmol/min/mg
- Km [11, 15]: 52.2 µM
- Vmax [11, 15]: 12.1 µmol/min/mg
- Km [12, 14]: 16.3 µM
- Vmax [12, 14]: 15.8 µmol/min/mg
- Km [12, 15]: 160 µM
- Vmax [12, 15]: 15.3 µmol/min/mg

Molecule: O=S(=O)([O-])[O-].[Cu+2] [Copper sulfate]
- Relative activity (%) [1, 16]: 105%

Molecule: C1CCCCCCC1 [Cyclooctane]
- Effect of organic solvent on reaction velocity (in words) [2]: increased
- Relative activity, ST-200 [2]: 1.4
- Reaction velocity in solvent compared to cholesterol oxidases of Nocardia erythropolis, Pseudomonas sp., Streptomyces sp., Brevibacterium sp. (in words) [2]: higher reaction velocity
- Relative activity, Nocardia erythropolis [3]: 1.1
- Relative activity, Pseudomonas sp. [4]: 0.8
- Relative activity, Streptomyces sp. [5]: 0.4
- Relative activity, Brevibacterium sp. [6]: 0.2

Molecule: C[C@]12CC[C@H](O)CC1=CC[C@@H]1[C@@H]2CC[C@]2(C)C(=O)CC[C@@H]12 [Dehyoepiandrosterone, 3β-Hydroxyandrost-5-en-17-one]
- Relative activity (%) [7]: 16%

Molecule: c1ccc(Cc2ccccc2)cc1 [Diphenylmethane]
- Effect of organic solvent on reaction velocity (in words) [2]: increased
- Relative activity, ST-200 [2]: 3.1
- Reaction velocity in solvent compared to cholesterol oxidases of Nocardia erythropolis, Pseudomonas sp., Streptomyces sp., Brevibacterium sp. (in words) [2]: higher reaction velocity
- Relative activity, Nocardia erythropolis [3]: 1.6
- Relative activity, Pseudomonas sp. [4]: 1.5
- Relative activity, Streptomyces sp. [5]: 1.0
- Relative activity, Brevibacterium sp. [6]: 0.8

Molecule: O=C(O)CN(CCN(CC(=O)O)CC(=O)O)CC(=O)O [EDTA]
- Relative activity [13]: 88%

Molecule: C[C@]12CC[C@H](O)C[C@@H]1CC[C@@H]1[C@@H]2CC[C@]2(C)C(=O)CC[C@@H]12 [Epiandrosterone, 5α-androstan-3β-ol-17-one]
- Relative activity (%) [7]: 10%

Molecule: CC(C)CCC[C@@H](C)[C@H]1CC[C@H]2[C@@H]3CC=C4C[C@H](O)CC[C@]4(C)[C@H]3CC[C@]12C [Epicholesterol, Cholest-5-en-3α-ol]
- Action of the enzyme on the substrate (in words) [7]: does not act on; also recorded: did not act on
- Relative activity (%) [7]: 0%

Molecule: CC(C)[C@@H](C)C=C[C@@H](C)[C@H]1CC[C@H]2C3=CC=C4C[C@@H](O)CC[C@]4(C)[C@H]3CC[C@]12C [Ergosterol, Ergosta-5,7,22-trien-3β-ol]
- Relative activity (%) [7]: 20%

Molecule: [Cl-].[Cl-].[Mg+2] [Magnesium chloride]
- Relative activity (%) [1]: 102%

Molecule: [Cl][Hg][Cl] [Mercury chloride]
- Relative activity (%) [1, 16]: 0%
- Inhibition of enzyme activity (in words) ([1]; cholesterol as substrate): inhibited; also recorded: strongly inhibited

Molecule: [Cl][Ni][Cl] [Nickel chloride]
- Relative activity (%) [1]: 90%

Molecule: Cc1ccc(C)cc1 [Paraxylene]
- Effect of organic solvent on reaction velocity (in words) [2]: increased
- Relative activity, ST-200 [2]: 3.4
- Reaction velocity in solvent compared to cholesterol oxidases of Nocardia erythropolis, Pseudomonas sp., Streptomyces sp., Brevibacterium sp. (in words) [2]: higher reaction velocity
- Relative activity, Nocardia erythropolis [3]: 1.6
- Relative activity, Pseudomonas sp. [4]: 1.5
- Relative activity, Streptomyces sp. [5]: 1.1
- Relative activity, Brevibacterium sp. [6]: 0.7

Molecule: CC(=O)[C@H]1CC[C@H]2[C@@H]3CC=C4C[C@@H](O)CC[C@]4(C)[C@H]3CC[C@]12C [Pregnenolone, 3β-Hydroxypregn-5-en-20-one]
- Relative activity (%) [7]: 32%

Molecule: CCCc1ccccc1 [Propylbenzene]
- Effect of organic solvent on reaction velocity (in words) [2]: increased
- Relative activity, ST-200 [2]: 3.2
- Reaction velocity in solvent compared to cholesterol oxidases of Nocardia erythropolis, Pseudomonas sp., Streptomyces sp., Brevibacterium sp. (in words) [2]: higher reaction velocity
- Relative activity, Nocardia erythropolis [3]: 1.6
- Relative activity, Pseudomonas sp. [4]: 1.3
- Relative activity, Streptomyces sp. [5]: 1.1
- Relative activity, Brevibacterium sp. [6]: 0.8

Molecule: O=[N+]([O-])[O-].[Ag+] [Silver nitrate]
- Relative activity (%) [1, 16]: 2%
- Inhibition of enzyme activity (in words) ([1]; cholesterol as substrate): inhibited; also recorded: strongly inhibited

Molecule: Cc1ccccc1 [Toluene]
- Effect of organic solvent on reaction velocity (in words) [2]: increased
- Relative activity, ST-200 [2]: 3.5
- Reaction velocity in solvent compared to cholesterol oxidases of Nocardia erythropolis, Pseudomonas sp., Streptomyces sp., Brevibacterium sp. (in words) [2]: higher reaction velocity
- Relative activity, Nocardia erythropolis [3]: 1.7
- Relative activity, Pseudomonas sp. [4]: 1.4
- Relative activity, Streptomyces sp. [5]: 1.2
- Relative activity, Brevibacterium sp. [6]: 0.5

Molecule: [Cl-].[Cl-].[Zn+2] [Zinc chloride]
- Relative activity (%) [1]: 92%

Molecule: c1cnc2c(c1)ccc1cccnc12 [o-phenanthroline]
- Relative activity [13]: 92%

Molecule: c1ccc(-c2ccccn2)nc1 [α,α-dipyridyl, reference compound]
- Relative activity (%) [1]: 98%

Molecule: c1ccc(-c2ccccn2)nc1 [α,α-dipyridyl]
- Relative activity [13]: 98%

Molecule: CC(C)CCC[C@@H](C)[C@H]1CC[C@H]2[C@@H]3CC[C@H]4C[C@@H](O)CC[C@]4(C)[C@H]3CC[C@]12C [β-cholestanol]
- Action of the enzyme on the substrate (in words) [7]: strongly oxidized
- Relative activity (%) [7]: 69%

Molecule: CC[C@H](CC[C@@H](C)[C@H]1CC[C@H]2[C@@H]3CC=C4C[C@@H](O)CC[C@]4(C)[C@H]3CC[C@]12C)C(C)C [β-sitosterol, sitost-5-en-3β-ol]
- Action of the enzyme on the substrate (in words) [7]: strongly oxidized
- Relative activity (%) [7]: 84%

Molecule: Iron sulfate
- Relative activity (%) [1, 16]: 94%

Molecule: Manganese chloride
- Relative activity (%) [1, 16]: 92%
